Here are results for 28 compounds from patent US11078170B2 (Assembly Biosciences, Inc., priority 2017, dated 2021).

The experiment relates to HBV viral production from HepAD38 cells. The experiment can be described thus: Activity of test compounds on viral production from HepAD38 cells (viral load by qPCR of HBV core sequence in supernatant). Particulars: Hepatitis B virus, 120 h, 5 days incubation, HBV DNA in supernatant by qPCR, top concentration 10 μM, read-out: Viral Load EC50 Activity range. The class given is cell-based. The essentials:
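HepAD38 cells, 50,000/well in tetracycline-free 2% FBS medium, treated 5 days at 37° C. with compound from 10 μM top concentration. HBV DNA in supernatant quantified by TaqMan qPCR of core sequence against DNA standards, relative to DMSO wells; CellTiter-Glo viability read in parallel. EC50/CC50 from four-parameter logistic fit.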

pEC50: −log10 of the molar value.

As to `CN1[C@@H](C(=O)Nc2ccc(F)c(Cl)c2)C[C@H](c2ncc(-c3cn(C)cn3)s2)NS1(=O)=O` [HBV-CSU-276-Trans-ISO-I, (3R,5R)-N-(3-chloro-4-fluorophenyl)-2-methyl-5-(5-(1-methyl-1H-imidazol-4-yl)thiazol-2-yl)-1,2,6-thiadiazinane-3-carboxamide 1,1-dioxide], the negative logarithm of the EC50 (pEC50) was more than 6.00.

On to `CN1[C@H](C(=O)Nc2ccc(F)c(Cl)c2)C[C@H](c2ccc3c(c2)ncn3C)NS1(=O)=O` [HBV-CSU-360-ISO-I, Cis-N-(3-chloro-4-fluorophenyl)-2-methyl-5-(1-methyl-1H-benzo[d]imidazol-5-yl)-1,2,6-thiadiazinane-3-carboxamide 1,1-dioxide], for which the pEC50 is 5.30 to 6.00.

As to `CN1[C@H](C(=O)Nc2ccc(F)c(Cl)c2)C[C@H](c2ccc(-c3cnn(C(F)(F)F)c3)s2)NS1(=O)=O` [HBV-CSU-321-ISO-I, Cis-N-(3-Chloro-4-fluorophenyl)-2-methyl-5-(5-(1-(trifluoromethyl)-1H-pyrazol-4-yl)thiophen-2-yl)-1,2,6-thiadiazinane-3-carboxamide 1,1-dioxide], the pEC50 was more than 6.00.

For the compound `CN1C(C(=O)Nc2ccc(F)c(Cl)c2)CC(c2ccc(-c3ccc(F)cn3)s2)NS1(=O)=O` (racemic) [HBV-CSU-242, Cis-N-(3-chloro-4-fluorophenyl)-5-(5-(5-fluoropyridin-2-yl)thiophen-2-yl)-2-methyl-1,2,6-thiadiazinane-3-carboxamide 1,1-dioxide], the negative logarithm of the EC50 (pEC50) is more than 6.00.

As to `CN1C(C(=O)Nc2ccc(F)c(Cl)c2)CC(c2ccc(-c3ccnn3C)s2)NS1(=O)=O` (racemic) [HBV-CSU-271, Cis-N-(3-chloro-4-fluorophenyl)-2-methyl-5-(5-(1-methyl-1H-pyrazol-5-yl)thiophen-2-yl)-1,2,6-thiadiazinane-3-carboxamide 1,1-dioxide], the pEC50 was more than 6.00.

Turning to `CN1[C@@H](C(=O)Nc2ccc(F)c(Cl)c2)C[C@@H](c2cc(-c3ccnn3C)cs2)NS1(=O)=O` [HBV-CSU-289-ISO-II, Cis-N-(3-chloro-4-fluorophenyl)-2-methyl-5-(4-(1-methyl-1H-pyrazol-5-yl)thiophen-2-yl)-1,2,6-thiadiazinane-3-carboxamide 1,1-dioxide], the pEC50 was 5.30 to 6.00.

`COc1ccc(CN2C(C(=O)Nc3ccc(F)c(Cl)c3)CC(c3nccs3)NS2(=O)=O)cc1` (stereo not drawn) [HBV-CSU-108, Cis-N-(3-chloro-4-fluorophenyl)-2-(4-methoxybenzyl)-5-(thiazol-2-yl)-1,2,6-thiadiazinane-3-carboxamide 1,1-dioxide]: the pEC50 is less than 5.30.

On to `CN1C(C(=O)Nc2ccc(F)c(C#N)c2)CC(c2cccs2)NS1(=O)=O` (racemic) [HBV-CSU-045, Cis-N-(3-cyano-4-fluorophenyl)-2-methyl-5-(thiophen-2-yl)-1,2,6-thiadiazinane-3-carboxamide 1,1-dioxide], for which the pEC50 was more than 6.00.

For the compound `CN1[C@H](C(=O)Nc2ccc(F)c(Cl)c2)C[C@H](c2ncc(-c3ccnn3C)s2)NS1(=O)=O` [HBV-CSU-281-ISO-I, Cis-N-(3-Chloro-4-fluorophenyl)-2-methyl-5-(5-(1-methyl-1H-pyrazol-5-yl)thiazol-2-yl)-1,2,6-thiadiazinane-3-carboxamide 1,1-dioxide], the pEC50 is more than 6.00.

Regarding `[2H]C1[C@]([2H])(c2ccc(-c3cn(C)cn3)s2)NS(=O)(=O)N(C)[C@]1([2H])C(=O)Nc1ccc(F)c(Cl)c1` (stereo in doubt) [HBV-CSU-375-ISO-I, Cis-N-(3-Chloro-4-fluorophenyl)-2-methyl-5-(5-(1-methyl-1H-imidazol-4-yl)thiophen-2-yl)-1,2,6-thiadiazinane-3,4,5-d3-3-carboxamide 1,1-dioxide], the pEC50 is more than 6.00.

On to `CN1C(C(=O)Nc2ccc(F)c(Cl)c2)CC(c2cc(-c3cn[nH]c3)cs2)NS1(=O)=O` (stereo not shown) [HBV-CSU-245], for which the pEC50 is more than 6.00.

As to `CN1[C@@H](C(=O)Nc2ccc(F)c(Cl)c2)C[C@@H](c2ccc(-c3ccc(F)cn3)s2)NS1(=O)=O` [HBV-CSU-242-ISO-II, Cis-N-(3-chloro-4-fluorophenyl)-5-(5-(5-fluoropyridin-2-yl)thiophen-2-yl)-2-methyl-1,2,6-thiadiazinane-3-carboxamide 1,1-dioxide], the pEC50 is less than 5.30.

On to `Cc1csc([C@@H]2C[C@H](C(=O)Nc3ccc(F)c(Cl)c3)N(C)S(=O)(=O)N2)c1` [HBV-CSU-147-ISO-II, Cis-N-(3-chloro-4-fluorophenyl)-2-methyl-5-(4-methylthiophen-2-yl)-1,2,6-thiadiazinane-3-carboxamide 1,1-dioxide], for which the pEC50 was less than 5.30.

As for `CN1C(C(=O)Nc2ccc(F)c(Cl)c2)CC(c2ccc(-c3cnco3)s2)NS1(=O)=O` (racemic) [HBV-CSU-269, Cis-N-(3-Chloro-4-fluorophenyl)-2-methyl-5-(5-(oxazol-5-yl)thiophen-2-yl)-1,2,6-thiadiazinane-3-carboxamide 1,1-dioxide], the pEC50 is more than 6.00.

For the compound `CN1[C@@H](C(=O)Nc2ccc(F)c(Cl)c2)C[C@@H](c2cc(-c3cncnc3)cs2)NS1(=O)=O` [HBV-CSU-290-ISO-II, Cis-N-(3-chloro-4-fluorophenyl)-2-methyl-5-(4-(pyrimidin-5-yl)thiophen-2-yl)-1,2,6-thiadiazinane-3-carboxamide 1,1-dioxide], the pEC50 is 5.30 to 6.00.

For `[2H]C([2H])([2H])N1[C@@H](C(=O)Nc2ccc(F)c(Cl)c2)C[C@@H](c2ncc(-c3cn(C)cn3)s2)NS1(=O)=O` (relative stereo) [HBV-CSU-338-ISO-II, Cis-N-(3-Chloro-4-fluorophenyl)-2-(methyl-d3)-5-(5-(1-methyl-1H-imidazol-4-yl)thiazol-2-yl)-1,2,6-thiadiazinane-3-carboxamide 1,1-dioxide], the pEC50 is 5.30 to 6.00.

Turning to `CN1C(C(=O)Nc2ccc(F)c(F)c2)CC(c2cccs2)NS1(=O)=O` (stereo not drawn) [HBV-CSU-011, Cis-N-(3,4-difluorophenyl)-2-methyl-5-(thiophen-2-yl)-1,2,6-thiadiazinane-3-carboxamide 1,1-dioxide], the pEC50 was more than 6.00.

Turning to `CN1[C@H](C(=O)Nc2ccc(F)c(Cl)c2)C[C@H](c2cc(-c3nncn3C)cs2)NS1(=O)=O` [HBV-CSU-328-ISO-I, Cis-N-(3-chloro-4-fluorophenyl)-2-methyl-5-(4-(4-methyl-4H-1,2,4-triazol-3-yl)thiophen-2-yl)-1,2,6-thiadiazinane-3-carboxamide 1,1-dioxide], the pEC50 is more than 6.00.

Consider `CN1[C@@H](C(=O)Nc2ccc(F)c(Br)c2)C[C@@H](c2ccc(F)cc2)NS1(=O)=O` [HBV-CSU-211-ISO-II, Cis-N-(3-Bromo-4-fluorophenyl)-5-(4-fluorophenyl)-2-methyl-1,2,6-thiadiazinane-3-carboxamide 1,1-dioxide], for which the pEC50 is less than 5.30.

Turning to `CCn1cc(-c2csc([C@H]3C[C@@H](C(=O)Nc4ccc(F)c(Cl)c4)N(C)S(=O)(=O)N3)c2)cn1` [HBV-CSU-294-ISO-I, Cis-N-(3-chloro-4-fluorophenyl)-5-(4-(1-ethyl-1H-pyrazol-4-yl)thiophen-2-yl)-2-methyl-1,2,6-thiadiazinane-3-carboxamide 1,1-dioxide], the pEC50 is more than 6.00.

For the compound `[2H]C1[C@]([2H])(C(=O)Nc2ccc(F)c(Cl)c2)N(C([2H])([2H])[2H])S(=O)(=O)N[C@]1([2H])c1ccc(Br)s1` (stereo in doubt) [HBV-CSU-372-ISO-II, Cis-5-(5-bromothiophen-2-yl)-N-(3-chloro-4-fluorophenyl)-2-(methyl-d3)-1,2,6-thiadiazinane-3,4,5-d3-3-carboxamide 1,1-dioxide], the pEC50 was 5.30 to 6.00.

With `[2H]C1[C@]([2H])(C(=O)Nc2ccc(F)c(Cl)c2)N(C)S(=O)(=O)N[C@]1([2H])c1ccc(-c2cn(C)cn2)s1` (stereo in doubt) [HBV-CSU-375-ISO-II, Cis-N-(3-Chloro-4-fluorophenyl)-2-methyl-5-(5-(1-methyl-1H-imidazol-4-yl)thiophen-2-yl)-1,2,6-thiadiazinane-3,4,5-d3-3-carboxamide 1,1-dioxide], the pEC50 is 5.30 to 6.00.

On to `CN1[C@@H](C(=O)Nc2ccc(F)c(Cl)c2)C[C@@H](c2ccc(-c3cn(C)cn3)s2)NS1(=O)=O` [HBV-CSU-266-ISO-II, Cis-N-(3-Chloro-4-fluorophenyl)-2-methyl-5-(5-(1-methyl-1H-imidazol-4-yl)thiophen-2-yl)-1,2,6-thiadiazinane-3-carboxamide 1,1-dioxide], for which the negative-log EC50 (pEC50) was 5.30 to 6.00.

Consider `CN1[C@@H](C(=O)Nc2ccc(F)c(Cl)c2)C[C@@H](c2ccc(C(N)=O)cc2)NS1(=O)=O` [HBV-CSU-214-ISO-I, Cis-5-(4-Carbamoylphenyl)-N-(3-chloro-4-fluorophenyl)-2-methyl-1,2,6-thiadiazinane-3-carboxamide 1,1-dioxide], for which the pEC50 was less than 5.30.

Regarding `CN1C(C(=O)Nc2cccc(Br)c2)CC(c2cccs2)NS1(=O)=O` (stereo not drawn) [HBV-CSU-017, Cis-N-(3-Bromophenyl)-2-methyl-5-(thiophen-2-yl)-1,2,6-thiadiazinane-3-carboxamide 1,1-dioxide], the negative logarithm of the EC50 (pEC50) was more than 6.00.

Consider `CN1[C@@H](C(=O)Nc2ccc(F)c(Cl)c2)C[C@@H](c2ccc(-c3cncn3C)s2)NS1(=O)=O` [HBV-CSU-267-ISO-II, Cis-N-(3-Chloro-4-fluorophenyl)-2-methyl-5-(5-(1-methyl-1H-imidazol-5-yl)thiophen-2-yl)-1,2,6-thiadiazinane-3-carboxamide 1,1-dioxide], for which the pEC50 is more than 6.00.

On to `CN1C(C(=O)Nc2ccc(F)c(Cl)c2)CC(c2cccc(C(F)(F)F)c2)NS1(=O)=O` (stereo not drawn) [HBV-CSU-259, Cis-N-(3-chloro-4-fluorophenyl)-2-methyl-5-(3-(trifluoromethyl)phenyl)-1,2,6-thiadiazinane-3-carboxamide 1,1-dioxide], for which the pEC50 was more than 6.00.

As for `CN1[C@@H](C(=O)Nc2ccc(F)c(Cl)c2)C[C@@H](c2ccc(-c3cnn(C)c3)cc2)NS1(=O)=O` (relative stereo) [HBV-CSU-246-ISO-I, Cis-N-(3-Chloro-4-fluorophenyl)-2-methyl-5-(4-(1-methyl-1H-pyrazol-4-yl)phenyl)-1,2,6-thiadiazinane-3-carboxamide 1,1-dioxide], the negative-log EC50 (pEC50) is less than 5.30.

As usually defined, the pEC50 is −log10 of the EC50, conventionally taken in molar units.
